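48-hour exposure; five concentrations; linearly interpolated endpoints. GI50: concentration for 50% inhibition of growth.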 Activity calls are given as the source filed them. Cut-off read from the data, not from the text of the source: active = GI50 up to about 1.1 µM and inactive = higher.
Columns and labels:
Test in all cases: growth of human tumour cells (NCI), 48 h
[1] = tested on: SF-295
[2] = tested on: UO-31
[3] = tested on: MOLT-4
[4] = tested on: LOX IMVI
[5] = tested on: SF-539
[6] = tested on: SNB-19
[7] = tested on: MCF7
[8] = tested on: SNB-75
[9] = tested on: DLD-1
[10] = tested on: OVCAR-3
[11] = tested on: OVCAR-5
[12] = tested on: HOP-18
[13] = tested on: NCI-H23
[14] = tested on: HT-29
[15] = tested on: SK-MEL-28
[16] = tested on: RPMI-8226
[17] = tested on: CCRF-CEM
[18] = tested on: UACC-62
[19] = tested on: SK-MEL-2
[20] = tested on: A549
[21] = tested on: NCI-H226
[22] = tested on: A498
[23] = tested on: SN12C
[24] = tested on: NCI-H522
[25] = tested on: IGROV-1
[26] = tested on: SK-MEL-5
[27] = tested on: SNB-78
[28] = tested on: NCI-H460
[29] = tested on: OVCAR-4
[30] = tested on: M19-MEL
[31] = tested on: HCT-15
[32] = tested on: HCC 2998
[33] = tested on: CAKI-1
[34] = tested on: NCI/ADR-RES
[35] = tested on: SK-OV-3
[36] = tested on: OVCAR-8
[37] = tested on: HCT-116
[38] = tested on: UACC-257
[39] = tested on: RXF 393
[40] = tested on: U-251
[41] = tested on: COLO 205
[42] = tested on: SF-268
[43] = tested on: HOP-92
[44] = tested on: KM12
[45] = tested on: K562
[46] = tested on: XF498
[47] = tested on: HOP-62
[48] = tested on: DMS-273
[49] = tested on: DMS-114
[50] = tested on: KM-20L2
[51] = tested on: SW-620
[52] = tested on: Malme-3M
[53] = tested on: EKVX
[54] = tested on: HL-60

Measured: GI50

Nc1ncnc2c1ncn2C1CCC(CO)O1 (centres undefined)
inactive: [1] > 79.4 µM | [2] > 100 µM | [3] > 100 µM | [4] > 100 µM | [5] > 100 µM | [6] > 100 µM | [7] > 100 µM | [8] > 100 µM | [9] > 100 µM | [10] > 100 µM | [11] > 100 µM | [12] > 100 µM | [13] > 66.7 µM | [14] > 61.1 µM | [15] > 63.2 µM | [16] > 100 µM | [17] > 100 µM | [18] > 100 µM | [19] > 100 µM | [20] > 100 µM | [21] > 67.9 µM | [22] > 85.1 µM | [23] > 100 µM | [24] > 100 µM | [25] > 100 µM | [26] > 100 µM | [27] > 100 µM | [28] > 100 µM | [29] > 82.8 µM | [30] > 100 µM | [32] > 77.4 µM | [33] > 100 µM | [34] > 77.4 µM | [35] > 77.6 µM | [36] > 79.4 µM | [37] > 100 µM | [38] > 100 µM | [39] > 100 µM | [40] > 100 µM | [41] > 100 µM | [42] > 60.5 µM | [43] > 79.8 µM | [44] > 100 µM | [45] > 100 µM | [46] > 90.8 µM | [47] > 100 µM | [48] > 100 µM | [49] > 55.6 µM | [50] > 100 µM | [51] > 100 µM | [52] > 100 µM | [53] > 87.3 µM | [54] > 100 µM
> 100 µM: [31]
